Measured values: ChEMBL document CHEMBL2094269, “WEHI/Eskitis Trypanosoma b. brucei screening data”

Assays:
[1] = system: Trypanosoma brucei brucei; experiment: microbe, parasite or virus in culture; assay type: functional, organism-based, STIB 795
Description: DNDI: Inhibition of Human African Trypanosomiasis (HAT), STIB 795, in vitro

[2] = DNDI: Cytotoxicity against human MRC-5 lung fibroblast cells.; settings: IC50

SMILES	IC50 ([1]; Trypanosoma brucei, STIB 795) [µM]	IC50 [2] [µM]	IC50 [1] [µM]
CCN1C=CC(=Cc2ccc3cc(C)ccc3[n+]2C)C=C1	0.538	> 20.8	
Cc1c2[nH]c3ccccc3c2c2c([n+]1C)CC(C)(C)CC2	8.67	> 41.7	
CCCN(CCC)C(=O)Cn1ccc(=N)c2ccccc21	3.52	> 41.7	
CN(C)c1cc[n+](Cc2c(Cl)cccc2Cl)cc1	≤ 0.044	> 41.7	
O=C1/C(=C/c2ccncc2)CCC/C1=C\c1ccncc1	0.03	1.94	
COCCN1CSC(=S)N(Cc2ccco2)C1	4.84	> 4.17	
Cc1ccccc1C(=O)O/N=C(\N)Cc1cccs1	0.414	> 20.8	
N=C(NOC(=O)N1CCOCC1)c1ccccc1	1.19	> 4.17	
COc1ccc(C(=N)NOC(=O)c2ccco2)cc1	3.69	> 20.8	
CCc1ccc2nc3nc(C)cc(C)c3c(N)c2c1	4.86	> 20.8	
N=C(NOC(=O)CC1CCCCC1)c1cccnc1	5.36	> 41.7	
Cc1ccccc1C(=O)O/N=C(\N)c1ccccc1	0.881	> 20.8	
Cc1cccc(C(=N)NOC(=O)c2ccoc2C)c1	0.338	> 10.4	
Clc1ccc2nnnc(-c3ccccc3)c2c1	2.81	4.48	
COc1ccc(C(=N)NOC(=O)c2cccs2)cc1	1.84	> 41.7	
Cc1ccc(O)c(NN=C2C(=O)CC(C)(C)CC2=O)c1	5.09	> 4.17	
Oc1c(Cl)cc(CN2CCOCC2)c2cccnc12	0.956	> 20.8	1.12
CNCc1ccccc1Sc1cccc2ccccc12	4.82	> 41.7	
c1ccc2c(c1)CC1CNCc3cccc(c31)S2 (centres undefined)	5.59	> 41.7	
NCC(O)(c1ccc(Cl)cc1)c1ccc(Cl)cc1	5.33	> 20.8	5.39
c1ccc(NN=C(c2ccccn2)c2ccccn2)nc1	0.468	> 1.04	
COC(=O)N/N=C\c1ccc(-c2ccccc2Cl)o1	1.95	> 41.7	
O=C(NNc1cccccc1=O)c1ccccc1	5.18	> 10.4	
CN1c2ccccc2N(C)C1c1ccc(O)cc1	3.47	> 41.7	
C/C(CC(C)(C)C1CCCCC1)=N/NC(N)N	1.4	> 4.17	
CC1=NN(c2ccc3cccc(O)c3n2)C(=O)C1	1.31	> 10.4	

SMILES	IC50 ([1]; Trypanosoma brucei, STIB 795) [µM]	IC50 [2] [µM]	IC50 [1] [µM]
Cn1cnn(C2CC(=O)C3OCC2O3)c1=S (centres undefined)	3.7	> 20.8	2.07
CC1CC2=C(C(=O)c3ccccc3C2=O)C(C)O1 (centres undefined)	5.59	> 41.7	
COc1ccc(O)c(/C=N/Nc2ccccn2)c1	4.69	> 20.8	
CNC(C)(C)Cc1c2c(cc3c1CCC3)CCC2	4.62	> 41.7	
COc1cc(OC)c2nc(C)c3c(c2c1)CNC3	2.5	7.02	
Cc1ccc(O)c(NC(=O)c2nc(N)n(C)n2)c1	0.196	1.84	
CCC1CO/C(=C2\Sc3ccccc3C2=O)N1 (centres undefined)	5.08	> 20.8	
CN(C)C(=S)N/N=C1\Cc2ccccc2C1=O	0.989	> 20.8	
Oc1c(/N=N/c2ccccn2)ccc2ccccc12	0.718	> 20.8	
O=C1c2ccccc2C(=O)N1/N=C/c1ccccc1	0.727	> 41.7	
CCn1ccnc1-c1cccc(-c2ccccn2)n1	0.425	> 1.04	
CC[N+]1=C(/C=C/N(C)C)c2cccc3cccc1c23	3.41	> 20.8	
O/N=C1\C=Cc2[nH]c(-c3ccccc3)cc2\C1=N/O	0.254	0.721	
Cc1cccc(C(=O)O/N=C(\N)c2ccncc2)c1	5.42	> 41.7	
Cc1ccc2[nH]c3c(c2c1)CCC/C3=N\N=C(N)N	8.57	> 20.8	
CC(=O)C(C(C)=O)C1=CC(=O)C(=O)c2ccccc21	7.06	> 20.8	
COc1ccc(C2=C(C)C(=O)C(C)=C(C)C2=O)cc1	5.55	> 20.8	
S=c1c(Cl)c(Cl)cnn1-c1ccccc1	6.17	> 20.8	
CCN(CC)c1ccc(/C=N/n2cnnc2)c(O)c1	1.92	> 41.7	
CS(=O)(=O)/C=C(\c1ccccc1)c1ccncc1	0.641	> 20.8	
CCc1cc2c(cc1C(C)N)C(C)(C)CCC2(C)C (centres undefined)	5	> 20.8	
CC(C)(C)C(N)CCc1ccc(Cl)cc1Cl (centres undefined)	5.49	> 41.7	
COC(=O)c1ccccc1N/N=C1\C(=N)ON=C1N	0.41	> 41.7	
Cc1ccc([S@+]([O-])/C(F)=C\c2ccccn2)cc1	0.903	5.57	
Cc1ccc2c(c1)C(=O)C(CN1CCOCC1)CO2 (centres undefined)	2.17	> 20.8	
Oc1c(Cl)cc(CN2CCCC2)c2cccnc12	4.32	> 4.17	

SMILES	IC50 ([1]; Trypanosoma brucei, STIB 795) [µM]	IC50 [2] [µM]	IC50 [1] [µM]
O=c1nc2oc3ccc4ccccc4c3cc-2c(=O)[nH]1	5.06	> 20.8	
CC1(C)CCC[C@]2(C)C=C(C3OCCO3)C(=O)C[C@@H]12	5.21	> 41.7	
O=C1c2ccccc2C(=O)c2c1ccc1c(=O)o[nH]c21	4.64	> 41.7	
Cc1cccc(NCc2ccc(O)c3ncccc23)n1	4.89	> 20.8	
CN(C)c1ccc(/C=C\C=C\c2ccc[n+](C)c2)cc1	0.354	> 20.8	
Cc1cc(C)nc(Nc2nc(N)c3ccccc3n2)n1	3.79	6.09	
CCN(Cc1ccccc1)S(=O)(=O)c1ncn[nH]1	3.38	> 41.7	
CCCCCc1ccc(-c2ccc(C(=N)N)cc2)cc1	5.73	15.5	
COc1ccc(Nc2nc3ccccc3c(=O)o2)cc1	0.435	> 20.8	
Cc1ccc(C23CC4CC(CC(CN)(C4)C2)C3)cc1C	0.91	> 20.8	
C/C(Cl)=C\CN1C(=O)C(=O)c2cc(Cl)ccc21	4.87	> 41.7	
O=C(Cc1cc(O)[nH]n1)N/N=C/C=C/c1ccccc1	5.31	> 41.7	
CCC(C)NC(=O)c1nc(-c2ccccc2)cnc1N (centres undefined)	0.426	> 41.7	
CC1CS/C(=N/c2ccc(Br)cc2)N1 (centres undefined)	6.65	> 41.7	
C/C(=N\NC(=O)Cc1ccc(F)cc1)c1ccccn1	5.17	> 4.17	
O=C1CC(n2nnnc2-c2ccccc2)C2COC1O2 (centres undefined)	2.18	> 20.8	
CN(C)c1ccc(C2=Nc3cccc4cccc2c34)cc1	0.434	> 41.7	
COc1ccc(CC(C)N)c(Sc2ccccc2)c1 (centres undefined)	5.42	> 41.7	
c1coc(CNc2c3ccccc3nc3ccccc23)c1	2.73	> 4.17	
C[N+](CC#CC1CC1)(C1CCCCC1)C1CCCCC1	8.85	> 41.7	
Oc1ccc(Cn2cnc3ccccc32)c2cccnc12	1.55	> 4.17	
Cc1ccc(OCCCCCN2CCNCC2)c(C)c1	5.38	> 41.7	
CN(C)CCCNCCCc1ccc(C(C)(C)C)cc1	0.079	8.02	
COC(=O)c1[nH]cc2c3cccnc3c3ncccc3c12	0.064	0.59	
Cc1ccc(/N=N/c2ccc(O)c3ncccc23)cc1C	4.92	> 20.8	
CC[n+]1ccccc1/C=C1\C=Cc2cc(C)ccc2N1C	0.911	> 20.8	

SMILES	IC50 ([1]; Trypanosoma brucei, STIB 795) [µM]	IC50 [2] [µM]	IC50 [1] [µM]
N=C(N)n1nc(-c2ccccc2)cc1-c1ccccc1O	5.07	> 20.8	
Cc1nn2c3c(nnc2c1-c1ccccc1)C(=O)CCC3	0.697	18.1	
O=C(Nc1cccc(Cl)c1)O/N=C1\CC2CCC1C2 (centres undefined)	0.857	> 20.8	
CN(C)CCn1c2ccccc2c2cnc(N)c(C#N)c21	3.62	> 4.17	
Cc1cc(N2CCN(C)CC2)c2[nH]c3ccccc3c2c1	0.748	7.26	
Cc1nnc(N/N=C/c2cc(Cl)ccc2O)nc1O	3.65	4.74	
O=C(N/N=C/c1c(O)ccc2ccccc12)c1cc[nH]n1	2.68	> 20.8	
Cc1ccc(/C(=C\CCNCCN)c2ccccc2)cc1	0.269	> 20.8	
O=C(N/N=C\c1cc(Cl)ccc1O)c1cccs1	10.9	> 41.7	
N/C(=N\OC(=O)c1cccs1)c1ccccc1Cl	0.766	> 20.8	
CC1(C)OC(C)(C)/C(=C/c2ccc3cccnc3c2)C1=O	5.21	> 20.8	
Cn1ccc(/C=C2/CCC/C(=C\c3ccn(C)n3)C2=O)n1	5.61	> 20.8	
COc1ccc(NCC2COc3ccccc3C2=O)cc1 (centres undefined)	4.91	> 41.7	
COC12C=CC(CC1)C1C(=O)c3cccc(O)c3C(=O)C12 (centres undefined)	2.48	> 20.8	
CN1C=C/C(=C\C=C2/C=Nc3ccccc32)c2ccccc21	0.311	> 4.17	
CC(C)COc1ccc2c(c1)c1c3n2CNCC3CCC1 (centres undefined)	2.88	> 20.8	
c1ccc(Nc2nc(-c3ccccc3)c3ccccn23)cc1	5.38	> 41.7	
CCCCc1c(C)[nH]n(-c2nc3ccccc3[nH]2)c1=O	0.895	> 1.04	
N#Cc1ccccc1N=NNc1ccccc1C#N	5.08	> 41.7	
CN(C)CCCNc1c2c(nc3ccccc13)CCC2	1.82	5.76	
N#Cc1c(N)nc2[nH]nc(N)c2c1-c1ccccc1	3.04	> 20.8	
CCN1/C(=C/c2cccc[n+]2C)C=Cc2cc(C)ccc21	0.909	> 20.8	
Oc1c(CN2CCCCC2)ccc2cccnc12	3.78	> 4.17	
O=C1c2ccccc2C(=O)c2c1ccc1nonc21	0.394	> 20.8	
COc1cc2nc(N(C)C)nc(N)c2cc1OC	5.21	> 20.8	
